From the supplement of paper PMC10307832

Key:
Assay in all cases: relative viability (nuclei count vs DMSO), 5 days (fraction); higher = more cells survive
[1] = compound: CC1=CC(=CC=C1)NC2=NC(=CS2)C3=CC=NC=C3 + Cc1cc(Nc2cc(N3CCN(C)CC3)nc(Sc3ccc(NC(=O)C4CC4)cc3)n2)n[nH]1 [Tozasertib] (partner 0.1 µM)
Procedure, shortened: (§1)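 For relative viability, nuclei counts in treated wells were divided by those in vehicle wells. Lung cancer cell lines had been pin-tool dosed in 1536-well plates the day after seeding and cultured for 5 days, then fixed and stained in one step (final 0.05% Triton X-100, 1% formaldehyde, 1 ug/ml Hoechst) and imaged at 4×. Doses were one drug alone or a fixed anchor-drug dose plus five library-drug doses (not always all listed) in √10 steps, and values are duplicate-plate medians.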

Masitinib + Navitoclax = compound: Cc1ccc(NC(=O)c2ccc(CN3CCN(C)CC3)cc2)cc1Nc1nc(-c2cccnc2)cs1 [Masitinib] + CC1(C)CCC(c2ccc(Cl)cc2)=C(CN2CCN(c3ccc(C(=O)NS(=O)(=O)c4ccc(N[C@H](CCN5CCOCC5)CSc5ccccc5)c(S(=O)(=O)C(F)(F)F)c4)cc3)CC2)C1 [Navitoclax] (partner 0.5 µM)
Procedure, shortened: as §1

Masitinib + Crizotinib = compound: Cc1ccc(NC(=O)c2ccc(CN3CCN(C)CC3)cc2)cc1Nc1nc(-c2cccnc2)cs1 [Masitinib] + C[C@@H](Oc1cc(-c2cnn(C3CCNCC3)c2)cnc1N)c1c(Cl)ccc(F)c1Cl [Crizotinib] (partner 1 µM)
Procedure, shortened: as §1

Masitinib + Pemetrexed = compound: Cc1ccc(NC(=O)c2ccc(CN3CCN(C)CC3)cc2)cc1Nc1nc(-c2cccnc2)cs1 [Masitinib] + Nc1nc2[nH]cc(CCc3ccc(C(=O)N[C@@H](CCC(=O)O)C(=O)O)cc3)c2c(=O)[nH]1 [Pemetrexed] (partner 0.2 µM)
Procedure, shortened: as §1

Cell Line | relative viability ([1]; first compound 0.08 µM) | relative viability ([1]; first compound 0.253 µM) | relative viability ([1]; first compound 0.8 µM) | relative viability ([1]; first compound 2.53 µM) | relative viability ([1]; first compound 8 µM) | relative viability (Masitinib + Navitoclax; first compound 0.01 µM) | relative viability (Masitinib + Navitoclax; first compound 0.03162 µM) | relative viability (Masitinib + Navitoclax; first compound 0.1 µM) | relative viability (Masitinib + Navitoclax; first compound 0.3162 µM) | relative viability (Masitinib + Navitoclax; first compound 1 µM) | relative viability (Masitinib + Crizotinib; first compound 0.01 µM) | relative viability (Masitinib + Crizotinib; first compound 0.03162 µM) | relative viability (Masitinib + Crizotinib; first compound 0.1 µM) | relative viability (Masitinib + Crizotinib; first compound 0.3162 µM) | relative viability (Masitinib + Crizotinib; first compound 1 µM) | relative viability (Masitinib + Pemetrexed; first compound 0.01 µM) | relative viability (Masitinib + Pemetrexed; first compound 0.03162 µM) | relative viability (Masitinib + Pemetrexed; first compound 0.1 µM) | relative viability (Masitinib + Pemetrexed; first compound 0.3162 µM) | relative viability (Masitinib + Pemetrexed; first compound 1 µM)
LOU-NH91 | 0.607 | 0.709 | 0.566 | 0.681 | 0.58 | 0.651 | 0.653 | 0.791 | 0.589 | 0.673 | 0.706 | 0.683 | 0.768 | 0.73 | 0.712 | 0.363 | 0.312 | 0.402 | 0.365 | 0.376
NCI-H322M | 0.419 | 0.444 | 0.478 | 0.519 | 0.492 | 1.18 | 1.15 | 1.3 | 1.22 | 1.26 | 0.745 | 0.956 | 1.02 | 0.9 | 0.873 | 0.606 | 0.594 | 0.625 | 0.615 | 0.582
NCI-H520 | 0.372 | 0.458 | 0.481 | 0.514 | 0.458 | 1.21 | – | 1.17 | 1.05 | 1.08 | 0.766 | – | 0.921 | 0.908 | 0.577 | 0.652 | 0.851 | 0.731 | 0.77 | 0.857
NCI-H1944 | 0.291 | 0.24 | 0.226 | 0.203 | 0.178 | – | 1.02 | 0.799 | 1 | 0.995 | – | 1.15 | 0.59 | 0.988 | 1.1 | – | 0.618 | – | 0.572 | 0.566
NCI-H1755 | 0.539 | 0.608 | 0.47 | 0.539 | 0.394 | – | 0.975 | 1.1 | 0.931 | 0.894 | – | 0.804 | 0.866 | 0.816 | 0.828 | 0.357 | 0.411 | 0.427 | 0.446 | 0.463
H3255 | 0.627 | 0.624 | 0.614 | 0.599 | 0.6 | 0.441 | 0.409 | 0.496 | 0.351 | 0.409 | – | 0.767 | 0.711 | 0.722 | 0.815 | 0.57 | 0.59 | 0.583 | 0.54 | 0.573
201T | 1.04 | 0.94 | 0.961 | 0.804 | 0.692 | 0.954 | 1.2 | 1.08 | 1.21 | 1.19 | 0.836 | 1.03 | 0.99 | 1.02 | 0.935 | 0.309 | 0.343 | 0.319 | 0.347 | 0.345
